What was measured:
hOAT3 = target: T1, hOAT3 (Homo sapiens, UniProt Q8TCC7); set-up: expressed in transfected cells; host or cells: HEK293; method as in PMID 23313623; conditions: read-out: Km (affinity with hOAT3); cited from earlier work
T1 sequence (Q8TCC7 1-542): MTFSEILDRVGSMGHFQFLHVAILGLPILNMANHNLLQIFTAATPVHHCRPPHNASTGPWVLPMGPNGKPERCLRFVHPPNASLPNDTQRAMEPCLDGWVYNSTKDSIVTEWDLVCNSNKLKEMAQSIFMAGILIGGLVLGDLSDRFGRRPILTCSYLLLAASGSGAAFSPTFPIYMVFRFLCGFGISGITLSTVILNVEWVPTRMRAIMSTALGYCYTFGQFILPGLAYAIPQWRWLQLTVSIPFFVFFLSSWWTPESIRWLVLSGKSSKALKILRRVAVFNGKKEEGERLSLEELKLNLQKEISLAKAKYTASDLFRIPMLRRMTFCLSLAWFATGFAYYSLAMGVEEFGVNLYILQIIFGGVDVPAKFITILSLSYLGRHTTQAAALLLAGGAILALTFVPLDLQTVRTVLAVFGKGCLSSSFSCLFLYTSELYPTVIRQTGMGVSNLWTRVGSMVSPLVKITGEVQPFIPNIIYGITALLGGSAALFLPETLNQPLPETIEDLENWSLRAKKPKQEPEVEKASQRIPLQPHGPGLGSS

[1] = human, in vivo; cited from earlier work
[2] = set-up: method as in PMID 32277364; conditions: healthy Chinese subjects, oral administration of Y101; cited from earlier work
hOAT1 = target: T2, hOAT1 (Homo sapiens, UniProt Q4U2R8); assay: In vitro uptake assay in hOAT1-HEK293 cells; format: in vitro ADME; conditions: Y101 2.0 µM, M8 10 µM; for inhibition of the uptake of ETV in hOAT1-HEK293 cells: ETV 10 µM; for substrate of hOAT1 (uptake in hOAT1-HEK293 vs mock-HEK293 cells): PAH 10 µM
T2 construct: expressed in transfected cells; host or cells: HEK293
T2 sequence (Q4U2R8 1-563): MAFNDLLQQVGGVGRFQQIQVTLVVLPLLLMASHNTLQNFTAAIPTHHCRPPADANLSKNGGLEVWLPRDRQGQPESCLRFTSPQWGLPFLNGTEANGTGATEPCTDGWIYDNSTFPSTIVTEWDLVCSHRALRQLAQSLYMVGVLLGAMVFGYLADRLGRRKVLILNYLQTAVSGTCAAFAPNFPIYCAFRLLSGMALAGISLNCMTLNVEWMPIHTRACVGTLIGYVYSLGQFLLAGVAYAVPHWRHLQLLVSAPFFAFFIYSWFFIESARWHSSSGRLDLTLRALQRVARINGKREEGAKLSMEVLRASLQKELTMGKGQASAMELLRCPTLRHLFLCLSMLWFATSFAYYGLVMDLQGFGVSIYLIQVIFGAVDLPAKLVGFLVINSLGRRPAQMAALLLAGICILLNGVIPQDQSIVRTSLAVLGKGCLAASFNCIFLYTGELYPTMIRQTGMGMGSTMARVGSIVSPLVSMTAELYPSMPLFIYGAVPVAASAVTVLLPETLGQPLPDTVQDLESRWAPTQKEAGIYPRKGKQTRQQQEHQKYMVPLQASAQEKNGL
Description: The hOAT1-HEK293, hOAT3-HEK293 and mock cells were cultured in Dulbecco modified Eagle medium (DMEM) containing 10% fetal bovine serum (FBS) and 1% penicillin/streptomycin in an atmosphere of 5% CO2 air at 37 °C. The HEK293 cells were plated on 24-well plates at a density of 5 × 10^5 cells/well. […] Uptake assay was initiated by adding 1 mL of the transporter buffer containing Y101, M8, ETV or probe substrate. Following incubation with gentle shaking, the uptake was terminated at designated time by removing the transporter buffer and washing cells three times with 1 mL of ice-cold HBSS. Next, substrates of Y101, M8, ETV, PAH and ES in cell monolayer were released by lysing the cells with 0.3 mL of 0.1% Triton X-100 for 2 h and determined by liquid chromatography–tandem mass spectrometry (LC–MS/MS). In the time-course uptake assay, Y101 (2.0 µM) and M8 (10 µM) in the presence or absence of PRO (100 µM) were measured in hOAT1-HEK293, hOAT3-HEK293 and mock cells. The concentration-dependent uptake of M8 was determined in hOAT3-HEK293 cells, and incubation time (5 min) was optimized. The uptake of M8 (10 µM) with or without ETV was examined in hOAT3-HEK293 cells. The uptake of ETV (10 µM) with or without Y101 or M8 was also measured in hOAT1-HEK293 and hOAT3-HEK293 cells, respectively. Furthermore, PAH and ES at concentrations of 10 µM were used as positive control in hOAT1-HEK293 and hOAT3-HEK293 cells, respectively. Protein concentrations were measured by the bicinchoninic acid procedure (Solarbio, Beijing, China) using bovine serum albumin as the standard.
Biological samples were prepared as previously described. Aliquots (50 µL) of urine, plasma, kidney homogenates, or cell lysates were individually mixed with 150 µL methanol and 50 µL working solution of internal standard (acetaminophen or bestatin), followed by vortexing for 1 min and centrifuging at 13,800 g for 10 min. […] The resulting supernatant (1 µL) was subjected to LC-MS/MS for the assessment of Y101, M8, M9 and ETV, respectively. […] The concentrations of ETV, Y101, M8 and M9 were determined by an AB QTRAP 5500 LC–MS/MS System (Foster City, CA, USA) as previously described. […] Analyst1.5.2 software was used for data processing and analysis.

[3] = system: lamivudine and entecavir-resistant HBV; set-up: method as in PMID 32277364, PMID 21872478, PMID 19307124, doi:10.1016/S1674-6384(15)60018-1; conditions: A64 cells; cited from earlier work
[4] = set-up: method as in PMID 32277364, PMID 29258048; conditions: healthy Chinese volunteers, phase I; cited from earlier work
[5] = concanavalin A and alpha-naphthylisothiocyanate-induced; cited from earlier work
HBV = system: HBV; set-up: method as in PMID 32277364, PMID 21872478, PMID 19307124, doi:10.1016/S1674-6384(15)60018-1; conditions: dose-dependent; cited from earlier work

SMILES	Km (hOAT3) [µM]	plasma concentrations [1]	renal excretion [2]	inhibition of the uptake of ETV in hOAT1-HEK293 cells (hOAT1)	substrate of hOAT1 (uptake in hOAT1-HEK293 vs mock-HEK293 cells) (hOAT1)	activity against lamivudine and entecavir-resistant HBV replication [3]	safety and tolerability [4]	protective effects on induced liver injury [5]	inhibitory effects on HBsAg and HBV-DNA replication (HBV)
C=C1[C@H](CO)[C@@H](O)C[C@@H]1n1cnc2c(=O)[nH]c(N)nc21 [ETV, entecavir]	23	lower than 50 nM							
CN(C)CCOc1ccc(CC(NC(=O)c2ccccc2)C(=O)O)cc1 (stereo not drawn) [M8]			27.2 % of the dose	not inhibited	not a substrate of hOAT1				
CN(C)CCOc1ccc(C[C@H](NC(=O)c2ccccc2)C(=O)N[C@H](CO)Cc2ccccc2)cc1.Cl [Y101, N-[N-benzoyl-O-(2-dimethylaminoethyl)-l-tyrosyl]-l-phenylalaninol hydrochloride]			2.98 % of the dose	not inhibited	not a substrate of hOAT1 or hOAT3	significant activity	acceptable safety and tolerability	protective effects	potent inhibitory effects
